In patent publication US8691186B2, “Imaging infection with compounds that bind to thymidine kinase” (priority 2004, dated 2014):
Values after ≈ are worked out from the molar mass of the structure shown.

Experiments:
C. novyi-NT [1] = assay: In vitro susceptibility test on C. novyi-NT; format: cell-based, Clostridium novyi-NT; settings: reinforced clostridial media, overnight, anaerobic, OD600
Description: (§1) In vitro susceptibility tests were performed on C. novyi-NT using 96 well plates containing two-fold serial dilutions of FIAU (Moravek Biochemicals) in reinforced clostridial media (Difco). Approximately, 10^5-10^6 bacteria were inoculated into each well and incubated at 37 C. overnight in an anaerobic chamber. C. novyi-NT growth was measured using an OD600. In order to test the mechanism of action of FIAU on bacteria, the thymidine kinase (TK) gene in E. coli was knocked out. An in vitro FIAU susceptibility test comparing wild type E. coli with the mutant TK deficient E. coli was preformed. 96 well plates were used containing two-fold serial dilutions of FIAU in Lauria Broth. Approximately, 10^5-10^6 bacteria were inoculated into each well and incubated at 37 C. overnight. Growth was measured using OD600.

Escherichia coli = assay: In vitro bacterial susceptibility assay, wild type E. coli; format: cell-based; settings: for Susceptibility of E. coli to nucleoside analog (growth inhibition): in vitro, Luria broth, 37° C.
Description: (§2) 1-(2′-deoxy-2′-fluoro-β-D-arabinofuranosyl)-5-iodouracil (FIAU) (Moravek catalog no. M251) and penciclovir (Moravek catalog no. M972) were purchased from Moravek Biochemicals (Brea, Calif.). Zidovudine was purchased from Glaxo Wellcome. Bacterial susceptibility tests were performed in 96-well microtiter plates (VWR Scientific), with serial dilutions of drug placed in each well. Each well was inoculated with Escherichia coli (Yale University E. coli Genetic Stock Center, New Haven, Conn.) and grown in Luria broth (Invitrogen) at 37° C. E. coli TK mutants were generated by selecting for spontaneously resistant colonies on plates containing 1 mg/ml Zidovudine. Ten resistant clones were selected and screened for deletions in the TK gene by using the PCR primers SZ46-eTKKO20F and (5′-[…]-3′ (SEQ ID NO: 1)) SZ49-eTK-K0789R (5′-ATCAAGACGCAGCACCATG-3′ (SEQ ID NO: 2)). […] As a control for integrity of the DNA of this clone, its 16S rRNA gene was amplified by using the primers SZ-16S-Ecoli993F (5′-ACATCCACGGAAGTTT-TCAG-3′ (SEQ ID NO: 3)) SZ 16S-Ecoli454R (5′-CCGAAGGTTAAGC-TACCTAC-3′ (SEQ ID NO: 4)).
To determine whether endogenous bacterial TK could provide a reporter enzyme suitable for imaging, the susceptibility of E. coli to a variety of common nucleoside analogs was examined in vitro.
as §1

TK deficient E. coli = assay: In vitro bacterial susceptibility assay, TK-deleted E. coli; format: cell-based, Escherichia coli; settings: for Susceptibility of TK gene-deleted E. coli derivative: in vitro
Description: as §2
To determine whether the TK gene was responsible for this sensitivity, a derivative of E. coli in which the TK gene was deleted was created. […] Because FIAU can be radiolabeled by using commercially available reagents and has been successfully used to image tumor cells transfected with HSV1-TK, it was elected to test its potential for imaging bacterial infections.
as §1, with “96 well plates were used containing two-fold serial dilutions of FIAU in Lauria Broth. Approximately, 10^5-10^6 bacteria were inoculated into each well and incubated at 37 C. overnight.” left out

[2] = system: Staphylococcus aureus 29213 and 25923; assay: In vivo imaging of S. aureus thigh infection in mice; settings: mouse thigh infection
Description: (§3) E. coli strains or clinical isolates from the Johns Hopkins Hospital Microbiology Laboratory, including Staphylococcus aureus 29213 and 25923, Streptococcus pneumoniae 49619, Enterococcus faecalis 49532, and Staphylococcus epidermidis F362, were used to create experimental infections. Bacteria were grown to log phase in Mueller Hinton Broth with Cations (Remel, Lenexa, Kans.) or BBL Todd Hewitt Broth (Becton Dickinson). Localized infections were generated by injecting 1×10^9 E. coli and ≈1×10^8 of the other bacterial strains into mouse thighs. […] To quantify the minimal number of bacteria required to generate signals upon imaging, mice were injected in the thigh with various amounts of S. aureus 25923. One hour later, the mice were killed, the muscles were harvested and homogenized, and the extracts spread on blood agar plates (Becton Dickinson) for colony counting.
(§4) Mice were injected with 225 μCi of [^125I]FIAU via the tail vein and imaged at various time points thereafter. Before imaging, mice were anesthetized via s.c. administration of acepromazine and ketamine. Each scan took min with a dedicated small-animal single-photon emission computed tomography (SPECT)/computed tomography (CT) camera (Gamma Medica X-SPECT, Northridge, Calif.) in planar acquisition mode using a low-energy high-resolution (LEHR) parallel-hole collimator. […]

C. novyi-NT [3] = assay: Imaging of intratumoral C. novyi-NT infection in tumor-bearing mice; format: in vivo, Clostridium novyi-NT
Description: All animal experiments were overseen and approved by the Animal Welfare Committee of The John Hopkins University and were in compliance with university standards. Six- to 8-wk-old athymic nu/nu or BALB/c mice, purchased from Harlan Bioproducts for Science (Indianapolis), were used for tumor implantation studies. Five million cells were injected s.c. into the right flank of each mouse. Tumor volume was calculated as length×width^2×0.5, and mice were treated with Clostridium novyi-NT spores when tumors occupied ˜250 mm^3. C. novyi-NT spores were prepared as described (15), and mice were i.v. injected with 300 million spores suspended in 250 μl of PBS.
(§5) Mice were injected with 225 μCi of [^125I]FIAU via the tail vein and imaged at various time points thereafter. Before imaging, mice were anesthetized via s.c. administration of acepromazine and ketamine. Each scan took min with a dedicated small-animal single-photon emission computed tomography (SPECT)/computed tomography (CT) camera (Gamma Medica X-SPECT, Northridge, Calif.) in planar acquisition mode using a low-energy high-resolution (LEHR) parallel-hole collimator. For each bacterial strain used, at least two mice were injected and imaged. To obtain SPECT/CT images, animals were first scanned for ≈40 min by using a small-animal SPECT camera in tomographic acquisition mode, using two LEHR parallel-hole collimators. The animals then underwent CT by using appropriate fiducial markers that allowed coregistration.
BALB/c mice bearing CT-26 mouse colon tumors were treated with a single i.v. injection of C. novyi-NT and [^125I]FIAU was administered 24 h later.
For in vivo studies, FIAU was labeled with 1-125. The optimal time course for imaging mice harboring HCTZ 16 colon cancer xenografts was determined empirically by varying the time of injection of FIAU in relation to C. novyi-NT. Biodistribution studies were performed in 12 athymic nu/nu mice harboring HCTZ 16 xenografts ˜350-400 mm^3, six of which were injected with 300 million C. novyi-NT spores 24 hrs prior to 2 uCi of 1-125 FIAU. Eight hours after I-125 FIAU injection, all twelve mice were euthanized by cervical dislocation and the brain, lungs, heart, blood, small and large intestine, liver, kidneys, muscle and tumor were harvested and weighed. The activity in each tissue was measured using an automated gamma counter (LKB Wallace 1282 Compugamma CS Universal Gamma Counter). The percent-injected dose per gram of tissue (% ID/g) was calculated by comparison with samples of a standard dilution of the initial dose. […]

[4] = system: Enterococcus faecalis 49532; assay: In vivo imaging of E. faecalis thigh infection in mice; settings: mouse thigh infection
Description: as §3, §4

S. aureus 25923 = assay: Minimal number of bacteria that could be imaged in mouse thigh; format: in vivo, Staphylococcus aureus; settings: 1 h after bacterial injection
Description: as §3
To determine the minimal number of bacteria that could be imaged with this approach, various numbers of S. aureus 25923 were injected into mouse thighs. One hour later, the thigh tissue was excised, homogenized, and spread on blood agar plates. The 1-h time point was chosen because this was the earliest time point at which injections of [^125I]FIAU consistently produced discernable scintigraphic images of infectious foci. As few as 2×10^6 colony-forming units per gram of muscle tissue produced discernable signals.

[5] = system: Staphylococcus epidermidis F362; assay: In vivo imaging of S. epidermidis thigh infection in mice; settings: mouse thigh infection
Description: as §3, §4

[6] = system: E. faecalis, S. aureus, S. epidermidis, and S. pneumoniae; assay: Time course of imaging of infections caused by pathogenic bacteria in mice; format: in vivo
Description: as §3, §5
Accordingly, this time point was chosen for detailed analyses. Biodistribution studies were performed in mice injected with 1×10^8 S. aureus 25923 into one thigh. Six hours later, the mice were injected with 2 μCi of [^125I]FIAU, and, after another 24 h, the mice were killed, their organs were harvested, and radioactivity was determined. […]

[7] = system: TK-deficient (TK−) strain of E. coli; assay: In vivo imaging of TK- E. coli thigh infection in mice; design: species or system Escherichia coli; settings: same mice, opposite thighs
Description: as §3, §4

[8] = system: Streptococcus pneumoniae 49619; assay: In vivo imaging of S. pneumoniae thigh infection in mice; settings: mouse thigh infection
Description: as §3, §4

WT E. coli = assay: In vivo imaging of WT E. coli thigh infection in mice; design: species or system Escherichia coli
Description: as §3, §5
[^125I]FIAU was synthesized by standard methods and injected i.v. into animals 6 h after intramuscular inoculations of bacteria into the thighs of mice. […] Signals from the infectious lesions could be seen as early as 2 h after injection of [^125I]FIAU and were optimal 16 h after injection.

[9] = BALB/c mice, CT-26 tumors, tracer 24 h after C. novyi-NT i.v.

For `O=c1[nH]c(=O)n([C@@H]2O[C@H](CO)[C@@H](O)[C@@H]2F)cc1I` [FIAU, 1-(2′-deoxy-2′-fluoro-β-D-arabinofuranosyl)-5-iodouracil], the “minimum inhibitory concentration 50 (MIC50)” value (C. novyi-NT [1]) was about 20 µg/mL (≈ 53.8 µM), the “Susceptibility of E. coli to nucleoside analog (growth inhibition)” value (Escherichia coli) was “quite sensitive” and the log10 IC50 (M) (Escherichia coli; wild type E. coli, Lauria Broth, overnight, OD600) was -10. For the same compound, the “Susceptibility of TK gene-deleted E. coli derivative” value (TK deficient E. coli) was “highly resistant” and the “Growth inhibition of TK deficient E. coli” value (TK deficient E. coli; two-fold serial dilutions, overnight, OD600) was “not inhibited at any concentration”.

`Nc1nc2c(ncn2CCC(CO)CO)c(=O)[nH]1` [penciclovir] was tested, and the “Susceptibility of E. coli to nucleoside analog (growth inhibition)” value (Escherichia coli) was “resistant”.

In the case of `O=c1[nH]c(=O)n([C@@H]2O[C@H](CO)[C@@H](O)[C@@H]2F)cc1[125I]` [[^125I]FIAU, 2′-fluoro-2′deoxy-1-beta-D-arabinofuranosyl-5-iodo-uracil], the “Imaging of infectious foci due to S. aureus” value [2] is reported as “readily imaged”, the “Earliest time at which tumors could be visualized after injection of tracer” value (C. novyi-NT [3]; [9]) is reported as 16 h and the “Time of maximum uptake after injection” value (C. novyi-NT [3]; [9]) is reported as 24 to 48 h. For the same compound, the “Uptake in tumors not treated with C. novyi-NT” value (C. novyi-NT [3]; CT-26 tumors, no C. novyi-NT) was “No uptake”, the “Imaging of tumor types responsive to bacteriolytic therapy” value (C. novyi-NT [3]; HCT116, HuCCTI or CT26 tumors, after C. novyi-NT spores) was “able to be imaged” and the “Imaging of infectious foci due to E. faecalis” value [4] was “readily imaged”. For the same compound, the “Minimal number of bacteria producing discernable signals” value (S. aureus 25923) was 2×10^6 colony-forming units per gram of muscle tissue, the “Imaging of infectious foci due to S. epidermidis” value [5] was “readily imaged” and the “Signal-to-noise ratio in infectious foci 24 h after administration” value ([6]; 24 h after administration) was “high signal-to-noise ratios”. For the same compound, the “Signal-to-noise ratio by 48 h after administration” value ([6]; 48 h after administration of the tracer) was “very high signal-to-noise ratios”, the “Earliest time at which robust signals could be observed after administration” value ([6]; mouse thigh infections, patient-derived strains) was 4 h and the “Uptake in thighs inoculated with TK- E. coli” value [7] was “no discernable uptake”. The “Imaging of infectious foci due to S. pneumoniae” value [8] was “readily imaged”, the “Earliest time at which signals from infectious lesions could be seen after injection” value (WT E. coli; WT E. coli thigh infection) was 2 h and the “Time after injection at which signals were optimal” value (WT E. coli; WT E. coli thigh infection) was 16 h. The “Uptake within infected thighs (whole-body planar scintigram)” value (WT E. coli; tracer i.v. 6 h after i.m. inoculation) was “demonstrated the uptake”.

`Nc1nc2c(ncn2COC(CO)CO)c(=O)[nH]1` [genciclovir] was tested, and the “Susceptibility of E. coli to nucleoside analog (growth inhibition)” value (Escherichia coli) was “resistant”.

In the case of `Cc1cn([C@H]2C[C@H](N=[N+]=[N-])[C@@H](CO)O2)c(=O)[nH]c1=O` [Zidovudine], the “Susceptibility of E. coli to nucleoside analog (growth inhibition)” value (Escherichia coli) is reported as “quite sensitive” and the “Susceptibility of TK gene-deleted E. coli derivative” value (TK deficient E. coli) is reported as “moderately resistant”.
